In patent publication US11001569B2, “6-membered heteroaromatic substituted cyanoindoline derivatives as NIK inhibitors” (Janssen Pharmaceutica NV, priority 2016, dated 2021) one finds IC50 and melting point data, which are given here for 27 compounds.

Read-outs that look alike come from different tables or passages of the source.

In series [1] the test system is JJN-3 (NIK translocated) multiple myeloma cells. The series can be described thus: Antiproliferative activity on JJN-3 multiple myeloma cells (CellTiter-Glo). It counts as cell-based, human. The conditions noted are these: JJN-3 (NIK translocated) cells, 96 hr treatment, averaged values, read-out: JJN-3 Proliferation inhibition (IC50 (nM)). In a few lines: (§1)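 Cells plated at 15000 (JJN3) or 20000 (KMS12BM) per well and treated 96 h at 37° C, 5% CO2, final DMSO 0.3%, 9-point 1:3 dilutions. Viability by CellTiter-Glo luminescence; time-zero blank subtracted, growth expressed as percent of untreated control.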
For orientation: ATP-based viability assays read luminescence as a measure of living cells.

The test system of series [2] is KMS12-BM (NIK WT) multiple myeloma cells. The series can be described thus: Antiproliferative activity on KMS12-BM multiple myeloma cells (CellTiter-Glo). The conditions noted are these: 96 hr treatment, averaged values, read-out: KMS-12 Proliferation inhibition (IC50 (nM)). It counts as cell-based, human. In a few lines: as §1
The target in series [3] is recombinant human NF-kappaB-inducing Kinase (NIK/MAP3K14) (Homo sapiens, UniProt Q99558). As to the kind of experiment: Inhibition of auto-phosphorylation of recombinant human NIK/MAP3K14 activity (AlphaScreen). It counts as biochemical. The conditions noted are these: 25 microM ATP, averaged over all measurements on all batches. In general terms: In Alpha technology, singlet oxygen from a donor bead excites a nearby acceptor bead.
Sequence of recombinant human NF-kappaB-inducing Kinase (NIK/MAP3K14) (Q99558 whole entry): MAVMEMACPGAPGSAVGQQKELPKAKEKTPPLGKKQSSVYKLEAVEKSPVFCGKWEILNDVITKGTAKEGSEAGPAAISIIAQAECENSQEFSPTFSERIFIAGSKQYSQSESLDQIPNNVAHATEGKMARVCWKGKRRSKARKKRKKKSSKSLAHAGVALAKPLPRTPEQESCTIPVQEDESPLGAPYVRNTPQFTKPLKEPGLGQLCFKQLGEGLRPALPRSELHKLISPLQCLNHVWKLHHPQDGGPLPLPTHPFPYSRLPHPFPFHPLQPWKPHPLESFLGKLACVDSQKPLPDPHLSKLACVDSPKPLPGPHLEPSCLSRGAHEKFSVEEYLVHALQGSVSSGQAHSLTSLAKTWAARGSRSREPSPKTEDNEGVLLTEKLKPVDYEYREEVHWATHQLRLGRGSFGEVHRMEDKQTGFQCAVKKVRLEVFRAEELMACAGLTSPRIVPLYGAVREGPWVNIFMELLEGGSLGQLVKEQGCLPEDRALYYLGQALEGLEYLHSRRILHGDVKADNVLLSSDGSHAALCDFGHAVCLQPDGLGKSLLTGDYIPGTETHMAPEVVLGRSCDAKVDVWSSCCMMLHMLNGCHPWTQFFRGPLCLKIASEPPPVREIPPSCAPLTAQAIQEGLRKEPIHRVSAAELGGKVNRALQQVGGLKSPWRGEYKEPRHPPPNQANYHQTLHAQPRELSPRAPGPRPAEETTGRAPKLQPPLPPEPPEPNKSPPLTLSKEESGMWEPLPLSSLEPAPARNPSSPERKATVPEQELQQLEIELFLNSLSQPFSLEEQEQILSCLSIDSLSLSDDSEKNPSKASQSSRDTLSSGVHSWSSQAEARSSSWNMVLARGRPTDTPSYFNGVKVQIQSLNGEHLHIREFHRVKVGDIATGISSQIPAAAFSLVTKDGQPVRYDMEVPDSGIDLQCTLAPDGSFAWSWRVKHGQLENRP

Series [4] has as its system P-IKKα levels in L363 (NIK translocated multiple myeloma) cells. As to the kind of experiment: Effect of compounds on P-IKKα levels in L363 cells (Mesoscale sandwich immuno-assay). It counts as cell-based, human. As to conditions: 2 hr treatment, averaged values, read-out: Inhibition of pIKKα_L-363 (IC50 (nM)). In a few lines:
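BAFF-stimulated (1 μg/ml stock) L363 cells preincubated 24 hr at 37° C, then treated 2 hr with compound (final 1% DMSO, 8-point 1:3 dilutions). Lysate P-IKKα measured by Mesoscale sandwich immunoassay; IC50 from sigmoidal fit of % inhibition versus log concentration.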

Compound `Cc1cc(Nc2nccc(-c3cc(C#N)c4c(c3)[C@@](C)(CO)CN4)n2)c(=O)n(CC(C)N2CCOCC2)c1` (mixture of isomers) [Compound 18i] displayed a melting point of 208 °C. In series [1] (Homo sapiens, JJN-3, 96 h), the IC50 came out at 49 nM. In addition, in series [2] (Homo sapiens, KMS-12-BM, 96 h), the IC50 was more than 10000 nM. Besides, the IC50 in series [3] was 0.9 nM. Also, the IC50 in series [4] (Homo sapiens, L-363, 2 h) was determined as 4.9 nM.
The like results for `CCCCc1ncc(C#N)cc1Nc1nccc(-c2cc(C#N)c3c(c2)[C@@](C)(CO)CN3)n1` [Compound 66] were, in that order, 178 °C, 41 nM, more than 10000 nM, 3.3 nM and approximately 141 nM.
For the compound `COc1nc(-c2cnn(C)c2)c(C)cc1Nc1nccc(-c2cc(C#N)c3c(c2)[C@@](C)(CO)CN3)n1` [Compound 91], the melting point came out at 166 °C. In addition, the IC50 in series [1] (Homo sapiens, JJN-3, 96 h) is 81 nM. Further, the IC50 in series [2] (Homo sapiens, KMS-12-BM, 96 h) is more than 10000 nM. Besides, in series [3], the IC50 is 8.9 nM. In series [4] (Homo sapiens, L-363, 2 h), the IC50 worked out at 5.4 nM.
With `CCCc1ncc(C#N)cc1Nc1nccc(-c2cc(C#N)c3c(c2)[C@@](C)(CO)CN3)n1` [Compound 63], the melting point amounted to 193 °C. Further, the IC50 in series [1] (Homo sapiens, JJN-3, 96 h) was 98 nM. For the same compound, the IC50 in series [2] (Homo sapiens, KMS-12-BM, 96 h) is more than 10000 nM. For the same compound, the IC50 in series [3] was found to be 2.9 nM. Besides, the IC50 in series [4] (Homo sapiens, L-363, 2 h) amounted to 17.4 nM.
The matching figures for `Cc1cnc(OC2CCN(C)CC2)c(Nc2nccc(-c3cc(C#N)c4c(c3)[C@@](C)(CO)CN4)n2)c1` [Compound 146]: 135 °C, 5.2 nM, 7080 nM, 2.8 nM and 4.1 nM.
The like results for `Cc1cnc(CCNC2CC2)c(Nc2nccc(-c3cc(C#N)c4c(c3)[C@@](C)(CO)CN4)n2)c1` [Compound 182] were, in that order, 156 °C, 49 nM, more than 10000 nM, 15.1 nM and 110 nM.
Turning to `Cc1cnc(CCN2CC(F)C2)c(Nc2nccc(-c3cc(C#N)c4c(c3)[C@@](C)(CO)CN4)n2)c1` [Compound 150], the melting point turned out to be 171 °C. In series [1] (Homo sapiens, JJN-3, 96 h), the IC50 was found to be 132 nM. For the same compound, the IC50 in series [2] (Homo sapiens, KMS-12-BM, 96 h) was more than 10000 nM. Moreover, in series [3], the IC50 is 12 nM. For the same compound, the IC50 in series [4] (Homo sapiens, L-363, 2 h) was found to be 25.7 nM.
`CN1CCCC(COc2ncc(Cl)cc2Nc2nccc(-c3cc(C#N)c4c(c3)[C@@](C)(CO)CN4)n2)C1` (single isomer, unassigned) [Compound 55] had a melting point of 204 °C. Moreover, the IC50 in series [1] turned out to be 69 nM. Also, the IC50 in series [2] came out at 1350 nM. Also, the IC50 in series [3] was 3.8 nM. Moreover, the IC50 in series [4] was 67.6 nM.
Turning to `C[C@]1(CO)CNc2c(C#N)cc(-c3ccnc(Nc4cc(C#N)cnc4CCC4CC4)n3)cc21` [Compound 64], the melting point was found to be 145 °C. The IC50 in series [1] (Homo sapiens, JJN-3, 96 h) was 35 nM. For the same compound, the IC50 in series [2] (Homo sapiens, KMS-12-BM, 96 h) came out at 6460 nM. Moreover, in series [3], the IC50 was found to be 4.7 nM. The IC50 in series [4] (Homo sapiens, L-363, 2 h) worked out at 27.5 nM.
Compound `Cc1cc(Nc2nccc(-c3cc(C#N)c4c(c3)[C@@](C)(CO)CN4)n2)c(C)cn1` [Compound 167] gave a melting point of 263 °C. In series [1] (Homo sapiens, JJN-3, 96 h), the IC50 is 30 nM. The IC50 in series [2] (Homo sapiens, KMS-12-BM, 96 h) was more than 10000 nM. Moreover, the IC50 in series [3] was determined as 1.7 nM. Moreover, the IC50 in series [4] (Homo sapiens, L-363, 2 h) came out at 2.8 nM.
The matching figures for `COCCOc1ncc(C)cc1Nc1nccc(-c2cc(C#N)c3c(c2)[C@@](C)(CO)CN3)n1` [Compound 69]: 186 °C, 263 nM, more than 10000 nM, 3.2 nM and approximately 129 nM.
The like results for `Cc1cc(Nc2nccc(-c3cc(C#N)c4c(c3)[C@@](C)(CO)CN4)n2)c(=O)n(C)c1` [Compound 9i] were, in that order, 313 °C, 120 nM, more than 10000 nM, 1 nM and 8.5 nM.
The compound `Cc1cnc(CO)cc1Nc1nccc(-c2cc(C#N)c3c(c2)[C@@](C)(CO)CN3)n1` [Compound 156] showed a melting point of 245 °C. Moreover, the IC50 in series [1] (Homo sapiens, JJN-3, 96 h) worked out at 105 nM. Further, the IC50 in series [2] (Homo sapiens, KMS-12-BM, 96 h) is approximately 6460 nM. The IC50 in series [3] was determined as 2.3 nM. Further, the IC50 in series [4] (Homo sapiens, L-363, 2 h) was 6.3 nM.
The like results for `CN(C)C(=O)/C=C/c1ccc(Nc2nccc(-c3cc(C#N)c4c(c3)[C@@](C)(CO)CN4)n2)c(CCC2CC2)n1` [Compound 88] were, in that order, 198 °C, 148 nM, more than 10000 nM, 4.2 nM and 22.4 nM.
As to `COCCN(C)c1nc(C)c(Nc2nccc(-c3cc(C#N)c4c(c3)[C@@](C)(CO)CN4)n2)cc1Cl` [Compound 51], the melting point was 152 °C. Moreover, the IC50 in series [1] (Homo sapiens, JJN-3, 96 h) is 31 nM. Moreover, the IC50 in series [2] (Homo sapiens, KMS-12-BM, 96 h) is more than 10000 nM. In series [3], the IC50 worked out at 3 nM. The IC50 in series [4] (Homo sapiens, L-363, 2 h) was determined as 2.8 nM.
With `Cc1cnc(OCC2COCCN2C)c(Nc2nccc(-c3cc(C#N)c4c(c3)[C@@](C)(CO)CN4)n2)c1` (single isomer, unassigned) [Compound 149], the melting point turned out to be 146 °C. Also, the IC50 in series [1] stood at 29 nM. In addition, the IC50 in series [2] is more than 10000 nM. Also, the IC50 in series [3] came to 8.9 nM. The IC50 in series [4] was determined as 7.8 nM.
Compound `Cc1cnc(OCC2COCCN2C)c(Nc2nccc(-c3cc(C#N)c4c(c3)[C@@](C)(CO)CN4)n2)c1` (single isomer, unassigned) [Compound 148] returned a melting point of 154 °C. For the same compound, the IC50 in series [1] amounted to 135 nM. Also, in series [2] (Homo sapiens, KMS-12-BM, 96 h), the IC50 is more than 10000 nM. The IC50 in series [3] is 8.5 nM. In addition, the IC50 in series [4] (Homo sapiens, L-363, 2 h) is 13.8 nM.
As to `C[C@]1(CO)CNc2c(C#N)cc(-c3ccnc(Nc4cc(C#N)cnc4OCC4CC4)n3)cc21` [Compound 74], the melting point turned out to be 206 °C. Moreover, in series [1] (Homo sapiens, JJN-3, 96 h), the IC50 stood at 141 nM. The IC50 in series [2] (Homo sapiens, KMS-12-BM, 96 h) was more than 10000 nM. Besides, the IC50 in series [3] is 16.2 nM. Also, the IC50 in series [4] (Homo sapiens, L-363, 2 h) is approximately 120 nM.
`COc1nc(CCC(=O)N(C)C)ccc1Nc1nccc(-c2cc(C#N)c3c(c2)[C@@](C)(CO)CN3)n1` [Compound 49] registered a melting point of 195 °C. The IC50 in series [1] (Homo sapiens, JJN-3, 96 h) is 35 nM. The IC50 in series [2] (Homo sapiens, KMS-12-BM, 96 h) was approximately 9330 nM. Moreover, the IC50 in series [3] was determined as 1.6 nM. In addition, in series [4] (Homo sapiens, L-363, 2 h), the IC50 stood at 0.8 nM.
The matching figures for `Cc1cc(Nc2nccc(-c3cc(C#N)c4c(c3)[C@@](C)(CO)CN4)n2)c(=O)n(CCN2CC(C)OC(C)C2)c1` (stereo partly drawn) [Compound 2i]: 135 °C, 479 nM, 5500 nM, 1.8 nM and 1.1 nM.
The like results for `COCCCc1ncc(C#N)cc1Nc1nccc(-c2cc(C#N)c3c(c2)[C@@](C)(CO)CN3)n1` [Compound 65] were, in that order, 158 °C, 263 nM, more than 10000 nM, 4.5 nM and 15.5 nM.
The matching figures for `C[C@]1(CO)CNc2c(C#N)cc(-c3ccnc(Nc4cc(Cl)cnc4C4CC4)n3)cc21` [Compound 46]: 234 °C, 28 nM, approximately 7940 nM, 3 nM and 4.7 nM.
For the compound `CN(C)C(=O)Cn1cc(Cl)cc(Nc2nccc(-c3cc(C#N)c4c(c3)[C@@](C)(CO)CN4)n2)c1=O` [Compound 11i], the melting point turned out to be 299 °C. In addition, the IC50 in series [1] (Homo sapiens, JJN-3, 96 h) was approximately 1120 nM. Moreover, the IC50 in series [2] (Homo sapiens, KMS-12-BM, 96 h) was more than 10000 nM. Moreover, the IC50 in series [3] stood at 1.9 nM. For the same compound, in series [4] (Homo sapiens, L-363, 2 h), the IC50 came out at 3.2 nM.
Compound `Cc1cc(Nc2nccc(-c3cc(C#N)c4c(c3)[C@@](C)(CO)CN4)n2)c(=O)n(CCN2CC(C)NC(C)C2)c1` (stereo partly drawn) [Compound 16i] yielded a melting point of 232 °C. In addition, in series [1] (Homo sapiens, JJN-3, 96 h), the IC50 came out at 25 nM. Besides, the IC50 in series [2] (Homo sapiens, KMS-12-BM, 96 h) is more than 10000 nM. The IC50 in series [3] came to 1.2 nM. Also, the IC50 in series [4] (Homo sapiens, L-363, 2 h) came to 11 nM.
The like results for `CN(C)C(=O)CCc1ccc(Nc2nccc(-c3cc(C#N)c4c(c3)[C@@](C)(CO)CN4)n2)c(CCC2CC2)n1` [Compound 89] were, in that order, 301 °C, 912 nM, more than 10000 nM, 3.6 nM and 14.8 nM.
As to `Cc1ncc(C#N)cc1Nc1nccc(-c2cc(C#N)c3c(c2)[C@@](C)(CO)CN3)n1` [Compound 50], the melting point was found to be 247 °C. For the same compound, the IC50 in series [1] (Homo sapiens, JJN-3, 96 h) came out at 145 nM. Also, in series [2] (Homo sapiens, KMS-12-BM, 96 h), the IC50 was 6610 nM. Besides, the IC50 in series [3] was determined as 1.3 nM. For the same compound, the IC50 in series [4] (Homo sapiens, L-363, 2 h) was 4.2 nM.
In turn, `Cc1cnc(OC2CN(C)CC2F)c(Nc2nccc(-c3cc(C#N)c4c(c3)[C@@](C)(CO)CN4)n2)c1` (stereo partly drawn) [Compound 153] gave a melting point of 180 °C. Also, in series [1] (Homo sapiens, JJN-3, 96 h), the IC50 stood at 240 nM. Moreover, the IC50 in series [2] (Homo sapiens, KMS-12-BM, 96 h) is approximately 5890 nM. Further, the IC50 in series [3] is 5.8 nM. Besides, the IC50 in series [4] worked out at 9.3 nM.

Usually melting point stands for the temperature of the solid-liquid transition.
